Data taken from patent US8785488B2 (Exelixis Patent Company LLC, priority 2009, dated 2014).

Legend:
human TGR5 (h-TGR5) = biological target: T1, human TGR5 (h-TGR5) (Homo sapiens, UniProt Q8TDU6); test: TGR5/CRE-Luciferiase Assay (HEK 293 hTGR5/CRE-Luc cells); type: cell-based; details: h-TGR5 CRE-Luc EC50, Table 1; read-out: CRE-Luc (EC50)
T1 construct: expressed in transfected cells
T1 sequence (Q8TDU6 1-330): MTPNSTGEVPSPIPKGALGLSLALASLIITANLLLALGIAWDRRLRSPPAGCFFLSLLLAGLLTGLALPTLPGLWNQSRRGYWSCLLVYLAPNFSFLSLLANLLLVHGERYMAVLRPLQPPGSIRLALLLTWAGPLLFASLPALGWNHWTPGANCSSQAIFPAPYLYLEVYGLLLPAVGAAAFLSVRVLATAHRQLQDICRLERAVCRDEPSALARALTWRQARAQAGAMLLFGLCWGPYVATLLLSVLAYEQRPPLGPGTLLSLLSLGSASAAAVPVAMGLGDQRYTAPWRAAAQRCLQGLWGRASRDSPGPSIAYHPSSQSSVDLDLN
Method in brief: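 HEK293 cells stably carrying hTGR5 and a CRE-luciferase reporter were exposed to serially diluted compounds (diluted in DMEM with 5% DMSO) for 6 h. Cells were then lysed in luciferase buffer, luminescence was read, and EC50 values were derived from dose-response curves.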

h-TGR5 = biological target: T2, h-TGR5 (Homo sapiens, UniProt Q8TDU6); test: TGR5 cAMP Assay using Cisbio cAMP Dynamic2 htrf kit (hTGR5CRE-luc HEK 293 cells); type: cell-based; details: h-TGR5 cAMP EC50, Table 1; read-out: cAMP (EC50)
T2 construct: expressed in transfected cells
T2 sequence (Q8TDU6 1-330): T1 sequence (Q8TDU6 1-330)
Method in brief: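 […], 4000 hTGR5CRE-luc HEK 293 cells per well, with 0.5 mM IBMX and d2-cAMP, were incubated 30 min at room temperature with compounds in 8-point half-log series, in quadruplicate.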

| SMILES | EC50 (human TGR5 (h-TGR5)) [nM] | EC50 (h-TGR5) [nM] |
| --- | --- | --- |
| COc1cc(-n2c(C(C)(C)c3ccc(S(C)(=O)=O)cc3)cnc2SCc2c(F)cc(C(=O)O)cc2F)ccc1F [3,5-difluoro-4-{[(1-[4-fluoro-3-(methyloxy)phenyl]-5-{1-methyl-1-[4-(methylsulfonyl)phenyl]ethyl}-1H-imidazol-2-yl)thio]methyl}benzoic acid] | 100 to 1000 | < 100 |
| CC(C)(c1ccc(Cl)c(Cl)c1)c1cnc(SCc2ccc(F)cc2Cl)n1-c1cccnc1 [3-(2-{[(2-chloro-4-fluorophenyl)methyl]thio}-5-[1-(3,4-dichlorophenyl)-1-methylethyl]-1H-imidazol-1-yl)pyridine] | 100 to 1000 | 1000 to 10000 |
| COc1cc(C(C)(C)c2cnc(SCc3c(F)cccc3Cl)n2-c2cccnc2)ccc1Cl [3-(2-{[(2-chloro-6-fluorophenyl)methyl]thio}-5-{1-[4-chloro-3-(methyloxy)phenyl]-1-methylethyl}-1H-imidazol-1-yl)pyridine] | 100 to 1000 | 100 to 1000 |
| CC(C)(c1ccc(Cl)c(Cl)c1)c1cnc(SCC2CCCN(c3nnn[nH]3)C2)n1-c1ccc(F)cc1 (stereo not shown) [3-[({5-[1-(3,4-dichlorophenyl)-1-methylethyl]-1-(4-fluorophenyl)-1H-imidazol-2-yl}thio)methyl]-1-(1H-tetrazol-5-yl)piperidine] | 1000 to 10000 | 1000 to 10000 |
| CC(C)(c1ccc(Cl)c(Cl)c1)c1cnc(CCc2ccc(S(N)(=O)=O)cc2Cl)n1-c1ccc(F)cc1 [3-chloro-4-(2-{5-[1-(3,4-dichlorophenyl)-1-methylethyl]-1-(4-fluorophenyl)-1H-imidazol-2-yl}ethyl)benzenesulfonamide] | 100 to 1000 | 1000 to 10000 |
| CC(C)(c1ccc(Cl)c(OCCCN2CCOCC2)c1)c1cnc(SCc2c(F)cc(C(=O)O)cc2Cl)n1-c1ccc(F)cc1 [3-chloro-4-({[5-(1-{4-chloro-3-[(3-morpholin-4-ylpropyl)oxy]phenyl}-1-methylethyl)-1-(4-fluorophenyl)-1H-imidazol-2-yl]thio}methyl)-5-fluorobenzoic acid] | 100 to 1000 | 100 to 1000 |
| CC(C)NC(=O)NS(=O)(=O)c1ccc(CSc2ncc(C(C)(C)c3ccc(F)c(C(F)F)c3)n2-c2ccc(F)cc2)c(Cl)c1 [3-chloro-4-({[5-{1-[3-(difluoromethyl)-4-fluorophenyl]-1-methylethyl}-1-(4-fluorophenyl)-1H-imidazol-2-yl]thio}methyl)-N-{[(1-methylethyl)amino]carbonyl} benzenesulfonamide] | 100 to 1000 | 100 to 1000 |
| COc1ccc(C(C)(C)c2cnc(SCc3ccc(S(=O)(=O)NC(=O)NN4CCCC4)cc3Cl)n2-c2ccc(F)c(C)c2)cc1Cl [3-chloro-4-({[5-{1-[3-chloro-4-(methyloxy)phenyl]-1-methylethyl}-1-(4-fluoro-3-methylphenyl)-1H-imidazol-2-yl]thio}methyl)-N-[(pyrrolidin-1-ylamino)carbonyl]benzenesulfonamide] | 100 to 1000 | 100 to 1000 |
| COc1ccc(C(C)(C)c2cnc(SCc3ccc(S(=O)(=O)NC(=O)NN4CCCC4)cc3Cl)n2-c2ccc(F)cc2)cc1Cl [3-chloro-4-({[5-{1-[3-chloro-4-(methyloxy)phenyl]-1-methylethyl}-1-(4-fluorophenyl)-1H-imidazol-2-yl]thio}methyl)-N-[(pyrrolidin-1-ylamino)carbonyl]benzenesulfonamide] | 100 to 1000 | 100 to 1000 |
| COc1ccc(C(C)(C)c2cnc(SCc3ccc(S(=O)(=O)NC(=O)NC(C)C)cc3Cl)n2-c2ccc(F)cc2)cc1Cl [3-chloro-4-({[5-{1-[3-chloro-4-(methyloxy)phenyl]-1-methylethyl}-1-(4-fluorophenyl)-1H-imidazol-2-yl]thio}methyl)-N-{[(1-methylethyl)amino]carbonyl}benzenesulfonamide] | 100 to 1000 | 100 to 1000 |
| CC(C)(c1ccc(C(F)F)c(F)c1)c1cnc(SCc2ccc(S(=O)(=O)NC(=O)NN3CCCC3)cc2Cl)n1-c1ccc(F)cc1 [3-chloro-4-({[5-{1-[4-(difluoromethyl)-3-fluorophenyl]-1-methylethyl}-1-(4-fluorophenyl)-1H-imidazol-2-yl]thio}methyl)-N-[(pyrrolidin-1-ylamino)carbonyl]benzenesulfonamide] | 100 to 1000 | 100 to 1000 |
| CC(C)NC(=O)NS(=O)(=O)c1ccc(CSc2ncc(C(C)(C)c3ccc(C(F)F)c(F)c3)n2-c2ccc(F)cc2)c(Cl)c1 [3-chloro-4-({[5-{1-[4-(difluoromethyl)-3-fluorophenyl]-1-methylethyl}-1-(4-fluorophenyl)-1H-imidazol-2-yl]thio}methyl)-N-{[(1-methylethyl)amino]carbonyl} benzenesulfonamide] | 100 to 1000 | 100 to 1000 |
| COc1cc(C(C)(C)c2cnc(SCc3ccc(S(=O)(=O)NC(=O)NN4CCCC4)cc3Cl)n2-c2ccc(F)cc2F)ccc1Cl [3-chloro-4-({[5-{1-[4-chloro-3-(methyloxy)phenyl]-1-methylethyl}-1-(2,4-difluorophenyl)-1H-imidazol-2-yl]thio}methyl)-N-[(pyrrolidin-1-ylamino)carbonyl]benzenesulfonamide] | 100 to 1000 | 100 to 1000 |
| COc1cc(C(C)(C)c2cnc(SCc3ccc(S(=O)(=O)NC(=O)NN4CCCC4)cc3Cl)n2-c2ccc(F)c(F)c2)ccc1Cl [3-chloro-4-({[5-{1-[4-chloro-3-(methyloxy)phenyl]-1-methylethyl}-1-(3,4-difluorophenyl)-1H-imidazol-2-yl]thio}methyl)-N-[(pyrrolidin-1-ylamino)carbonyl]benzenesulfonamide] | 100 to 1000 | 100 to 1000 |
| COc1cc(C(C)(C)c2cnc(COc3c(F)cc(C(=O)O)cc3Cl)n2-c2ccc(F)cc2)ccc1Cl [3-chloro-4-({[5-{1-[4-chloro-3-(methyloxy)phenyl]-1-methylethyl}-1-(4-fluorophenyl)-1H-imidazol-2-yl]methyl}oxy)-5-fluorobenzoic acid] | 100 to 1000 | 100 to 1000 |

Next, values leading:

| EC50 (human TGR5 (h-TGR5)) [nM] | EC50 (h-TGR5) [nM] | SMILES |
| --- | --- | --- |
| < 100 | < 100 | CC(C)(c1ccc(S(C)(=O)=O)cc1)c1cnc(SCc2c(F)cc(C(=O)O)cc2F)n1-c1ccc(F)cc1 [3,5-difluoro-4-({[1-(4-fluorophenyl)-5-{1-methyl-1-[4-(methylsulfonyl)phenyl]ethyl}-1H-imidazol-2-yl]thio}methyl)benzoic acid] |
| 100 to 1000 | 100 to 1000 | COc1cc(-n2c(C(C)(C)c3cccc(S(C)(=O)=O)c3)cnc2SCc2c(F)cc(C(=O)O)cc2F)ccc1F [3,5-difluoro-4-{[(1-[4-fluoro-3-(methyloxy)phenyl]-5-{1-methyl-1-[3-(methylsulfonyl)phenyl]ethyl}-1H-imidazol-2-yl)thio]methyl}benzoic acid] |
| < 100 | < 100 | COc1cc(C(C)(C)c2cnc(SCc3c(F)ccc(S(N)(=O)=O)c3F)n2-c2ccc(F)cc2)ccc1Cl [3-({[5-{1-[4-chloro-3-(methyloxy)phenyl]-1-methylethyl}-1-(4-fluorophenyl)-1H-imidazol-2-yl]thio}methyl)-2,4-difluorobenzenesulfonamide] |
| < 100 | < 100 | COc1cc(C(C)(C)c2cnc(SCc3c(F)cc(-c4noc(=O)[nH]4)cc3F)n2-c2ccc(F)cc2)ccc1Cl [3-[4-({[5-{1-[4-chloro-3-(methyloxy)phenyl]-1-methylethyl}-1-(4-fluorophenyl)-1H-imidazol-2-yl]thio}methyl)-3,5-difluorophenyl]-1,2,4-oxadiazol-5(4H)-one] |
| < 100 | 100 to 1000 | COc1cc(C(C)(C)c2cnc(SCc3ccc(S(=O)(=O)NC(=O)NN4CCCC4)cc3Cl)n2-c2ccc(F)c(Cl)c2)ccc1Cl [3-chloro-4-({[1-(3-chloro-4-fluorophenyl)-5-{1-[4-chloro-3-(methyloxy)phenyl]-1-methylethyl}-1H-imidazol-2-yl]thio}methyl)-N-[(pyrrolidine-1-ylamino)carbonyl]benzenesulfonamide] |
| < 100 | < 100 | COc1ccc(C(C)(C)c2cnc(SCc3c(F)cc(C(=O)O)cc3Cl)n2-c2ccc(F)cc2)cc1Cl [3-chloro-4-({[5-{1-[3-chloro-4-(methyloxy)phenyl]-1-methylethyl}-1-(4-fluorophenyl)-1H-imidazol-2-yl]thio}methyl)-5-fluorobenzoic acid] |
| < 100 | < 100 | COc1ccc(C(C)(C)c2cnc(SCc3ccc(S(N)(=O)=O)cc3Cl)n2-c2ccc(F)cc2)cc1Cl [3-chloro-4-({[5-{1-[3-chloro-4-(methyloxy)phenyl]-1-methylethyl}-1-(4-fluorophenyl)-1H-imidazol-2-yl]thio}methyl)benzenesulfonamide] |
| < 100 | 100 to 1000 | COc1cc(C(C)(C)c2cnc(SCc3ccc(S(=O)(=O)NC(=O)NN4CCCC4)cc3Cl)n2-c2ccc(F)c(C)c2)ccc1Cl [3-chloro-4-({[5-{1-[4-chloro-3-(methyloxy)phenyl]-1-methylethyl}-1-(4-fluoro-3-methylphenyl)-1H-imidazol-2-yl]thio}methyl)-N-[(pyrrolidin-1-ylamino)carbonyl]benzenesulfonamide] |
